These results are taken from patent US8388963B2, “Antitumor combinations containing a VEGF-inhibiting agent and 5FU or a derivative thereof” (Aventis Pharma SA, priority 2004, dated 2013).

For data set [1], the system named is MC 13/C mammary tumor. As to the kind of experiment: antitumor activity on subcutaneously transplanted mammary tumor in mice (study BCM-1428).
Experimental: A product is considered to be active if log10 killed cells is greater than or equal to 0.7. A product is considered to be very active if the log10 killed cells is greater than 2.8.
30 to 60 mg of an MC 13/C mammary tumor fragment are transplanted bilaterally, subcutaneously, into the animals subjected to the experiment, generally mice, on day 0. The animals bearing the tumors are randomized before being subjected to the various treatments and controls. In the case of treatment of advanced tumors, the tumors are left to develop until the desired size, the animals having insufficiently developed tumors being eliminated. The animals selected are divided up randomly so as to undergo the treatments and the controls. […] The chemotherapy generally begins from 3 to 22 days after the tumor transplant, according to the type of tumor, and the animals are observed every day. The various groups of animals are weighed three or four times a week until the maximum weight loss is obtained, and then the groups are weighed at least once a week until the end of the trial.
The tumors are measured two or three times a week until the tumor reaches approximately 2 g or until the animal's death if the latter occurs before the tumor reaches 2 g. The animals are autopsied when they are sacrificed.
The antitumor activity is determined as a function of the various parameters recorded.
0.2 ml per mouse is prepared, according to the usual technique, for intravenous administration, from a commercial solution of 5 cm^3 containing 250 mg of 5 FU to be diluted with 5% glucose in water.
These solutions are administered simultaneously, after suitable dilution, by infusion.
The format of data set [2] is in vivo.
Setting [3] is: sc VEGF-Trap 2.5 mg/kg/day (total 15), days 4,7,11,14,18,21.
Setting [4] is: sc VEGF-Trap 10 mg/kg/day (total 60), days 4,7,11,14,18,21.
Setting [5] is: sc VEGF-Trap 25 mg/kg/day (total 150), days 4,7,11,14,18,21.
Setting [6] is: sc VEGF-Trap 40 mg/kg/day (total 240), days 4,7,11,14,18,21.
[7] abbreviates: iv 5-FU 34.6 mg/kg/day (total 103.8), days 4,11,18.
The mark [8] stands for this setting: iv 5-FU 55.8 mg/kg/day (total 167.4), days 4,11,18.
The mark [9] stands for this setting: iv 5-FU 90 mg/kg/day (total 270), days 4,11,18.
[10] abbreviates: iv 5-FU 145 mg/kg/day (total 435), days 4,11,18.

Like-named read-outs stand apart in the source and are kept apart here.

In the case of “VEGF-Trap: fusion protein: VEGFR1 signal sequence, Ig domain D2 of VEGFR1, Ig domain D3 of VEGFR2, Fc domain of IgG1”, the “% T/C (inhibition of tumor growth at day 24)” value amounted to 32% in data set [1] (setting [3]), 9% in data set [1] (setting [4]), 8% in data set [1] (setting [5]) and 4% in data set [1] (setting [6]). Besides, the “T-C days (delay of tumor growth)” value in data set [1] (setting [3]) was 5.2 days; in data set [1] (setting [4]) it was 12.1 days; in data set [1] (setting [5]), 13.9 days; in data set [1] (setting [6]), 12.7 days. For the same compound, the “lck (log cells killed)” value in data set [1] (setting [3]) stood at 0.6; in data set [1] (setting [4]), 1.3; in data set [1] (setting [5]), 1.5; in data set [1] (setting [6]) it was 1.4. In addition, the “% weight loss at the lowest point” value in data set [2] (setting [3]) amounted to 0.9%; in data set [2] (setting [4]), 1.1%; in data set [2] (setting [5]), 1.1%; in data set [2] (setting [6]), 2.3%. Further, the “Death due to the treatment” value in data set [2] (setting [3]), in data set [2] (setting [4]), in data set [2] (setting [5]) and in data set [2] (setting [6]) was 0/5 throughout.

Take `O=c1[nH]cc(F)c(=O)[nH]1` [5-FU, 5-fluorouracil, reference compound]: the “% T/C (inhibition of tumor growth at day 24)” value is on record as 34% in data set [1] (setting [7]), 12% in data set [1] (setting [8]), 0% in data set [1] (setting [9]) and “Toxic” in data set [1] (setting [10]). In addition, the “T-C days (delay of tumor growth)” value in data set [1] (setting [7]) is 4.6 days; in data set [1] (setting [8]) it was 7.8 days; in data set [1] (setting [9]), 12.5 days. In addition, the “lck (log cells killed)” value came out at 0.5 in data set [1] (setting [7]), 0.8 in data set [1] (setting [8]) and 1.3 in data set [1] (setting [9]). Besides, the “% weight loss at the lowest point” value is reported as “+2.3%” in data set [2] (setting [7]), 1.1% in data set [2] (setting [8]), 4.8% in data set [2] (setting [9]) and 8.7% in data set [2] (setting [10]). For the same compound, the “Death due to the treatment” value in data set [2] (setting [7]) is listed as 0/5; in data set [2] (setting [8]), 0/5; in data set [2] (setting [9]), 0/5; in data set [2] (setting [10]), 1/5.
